The nature of data set [1]: Pharmacokinetic assessment in C57BL/6 healthy wild-type mice (i.p.). The class given is in vivo, mouse. Conditions: C57BL/6 mice, 10 mg/kg i.p.; for concentration at 0.5 h / concentration at 4 h / concentration at 7 h: male, mouse, ip. The protocol:
(§1) For PK evaluation, the compounds were administered i.p to male C57BL/6 mice in suspension (gelatine/saline 7.5%/0.62% in water) using an administration volume of 4 mL/kg. Blood samples were collected in tubes containing EDTA, plasma was separated by centrifugation and stored at −80° C. Liver and kidney samples (˜100 mg aliquots) were homogenized in three volumes of water using Precellys tissue homogenization tubes (precellys.com). 25 μL of each tissue homogenate was further diluted with 25 μL blank plasma to produce the final tissue homogenate for extraction. All samples were analyzed using protein precipitation followed by LC-MS/MS analysis. Briefly, 50 μL plasma or final tissue homogenate were mixed with 50 μL 0.5M HClO4/acetonitrile 9/1 (containing 200 ng/mL internal standard bosentan). Samples were stirred and 300 μL water was added followed by centrifugation at 5600 rpm (4° C., 10 min). 10 μL supernatant was analyzed by LC/MS analysis. Calibration standards in plasma were prepared the same way. The LC column and conditions used were: Phenomenex, Polar RP, 4 μm, 50×2.1 mm at 0.4 mL/min flow rate with a 3 min gradient from 95% solvent A to 95% solvent B (Solvent A: Water/ACN/HCOOH, 90:10:0.1+10 mM NH4 formate; Solvent B: Water/ACN/HCOOH, 10:90:0.1+10 mM NH4 formate). Mass spectrometric conditions were: Thermo TSQ Vantage with positive heated electrospray ionization in MS/MS mode. Compounds mass transitions monitored were m/z 320.7 to 119.9. PK parameters for all studies were calculated using Phoenix WinNonlin Software.
We next determined the stability, tissue distribution and cleavage rate in plasma, liver and kidney of the designed prodrugs in non-diseased mice. In the in vivo screen, the kinetics and distribution of γ-secretase inhibitor prodrugs Ac-γ-Glu-SecrI (13a), Ac-α-Glu-SecrI (15a) and H-α-Glu-SecrI (15b) were compared with the active γ-secretase inhibitor amine-SecrI (11a). After i.p administration (10 mg/kg) in C57BL/6 mice, the disappearance of the prodrugs and the formation of the active amine-SecrI (11a) were compared in plasma, liver and kidney (Table 5). First, we determined the pharmacokinetics (PK) behavior of amine-SecrI (11a) following i.p. administration (Table 5A). […] Liver and kidney exposure were much higher, with approximately 4.5-fold higher exposure in liver compared to kidney. […] The selectivity towards kidney appeared to decrease over time, probably due to fast clearance and re-equilibration of the amine-SecrI (11a). However, the high selectivity at earlier time-points assured that the total exposure over time was much higher in the kidney compared to the liver.

The nature of data set [2]: Distribution in plasma, liver and kidney in the aristolochic acid mouse model (repeated i.p.). It is filed as in vivo. To be noted: AA-exposed mice, 11a 10 mg/kg b.i.d. i.p. repeated, 13 h. The protocol:
as §1
All experiments with animals were conducted in accordance with federal and local regulation at the respective study location. Kidney injury was induced by intraperitoneal (i.p). injection of aristolochic acid (AA, Sigma-Aldrich, 1×5 mg/kg) in 10 weeks old BALB/c male mice. The γ-secretase inhibitors prodrugs were diluted in NaCl 0.9% and administered i.p., starting one day before the injection of AA (day −1) and then twice daily until day 6 evening (n=5 mice/experimental group). […] The kidneys were cut in four fragments. One fragment was immediately frozen in liquid nitrogen, one fragment was included in OCT (Tissue-Tek, VWR International, Switzerland) and frozen, one fragment was frozen at −80° C. and one fragment was fixed in 4% paraformaldehyde and included in paraffin.
To investigate potential nephroprotective effects of Notch blockade using γ-secretase inhibition and to evaluate the effects of our enzyme-targeted prodrug strategy, we used the in vivo AA mouse model of acute renal tubular damage. […]
Plasma and tissue concentrations of administered compound (Table 6A-C) and formed free γ-secretase inhibitor (8) (Table 6A) or amine-SecrI (11a) (Table 6B-C) were determined following 8-day repeated i.p. administration at 10 mg/kg b.i.d. (Table 6A) or 30 mg/kg b.i.d. […] Numbers in parentheses represent relative amounts with the exposure of 11a in kidney arbitrarily set at each time point to 100%. […] BQL=below quantifiable limit.

Data set [3] can be described thus: Pharmacokinetic assessment in male Wistar rats (i.v.). It is filed as in vivo, rat. Conditions: for 8 in kidney, relative amount (arbitrarily set to 100%) / 8 in liver, relative amount (kidney = 100%) / concentration at 0.25 h / concentration at 1.25 h / concentration at 2.2 h / concentration at 7 h: 8 3.5 mg/kg i.v.; for concentration at 0.25 h / concentration at 1.25 h / concentration at 2.2 h / concentration at 7 h: rat, iv. How it is done:
as §1
We next determined the stability, tissue distribution and cleavage rate in plasma, liver and kidney of the designed prodrugs in male Wistar rats. In the in vivo screen, the kinetics and distribution of the prodrugs Ac-γ-Glu-SecrI (13a) and Ac-γ-Glu-O-SecrI (13c) were compared with the active γ-secretase inhibitor SecrI (8). After i.v. administration in male Wistar rats, the disappearance of the prodrugs and the formation of the active amine-SecrI (11a), amine-O-SecrI (11b) and SecrI (8) were compared in plasma, liver and kidney (Table 7A-C). First, we determined the pharmacokinetics (PK) behavior of SecrI (8) following i.v. administration (Table 7A). […] Liver and kidney exposure were much higher, with same exposure in liver and kidney. […] The selectivity towards kidney stayed constant over time. The carbonate analogue Ac-γ-Glu-O-SecrI (13c) prodrug was converted to a lower extent than the Ac-γ-Glu-SecrI (13a) to amine-O-SecrI (11b) but more to the linker free γ-secretase inhibitor 8 (Table 7C).
Plasma and tissue concentrations of administered compound (A-C) and formed amine-SecrI (11a), amine-O-SecrI (11b) or SecrI (8) (B-C) were determined following i.v. administration in rats (no standard deviation given due to sparse sampling; n≤3 rats per time point). Numbers in parentheses represent relative amounts with the exposure of kidney arbitrarily set at each time point to 100%. […] BQL=below quantifiable limit.

Setting [4] is: kidney, read-out: Kidney concentration of administered compound.
The mark [5] stands for this setting: liver, read-out: Liver concentration of administered compound.
[6] abbreviates: plasma, read-out: Plasma concentration of administered compound.

Like-named read-outs stand apart in the source and are kept apart here.

Consider `CC(=O)N[C@@H](CCC(=O)O)C(=O)NCCNC(=O)OCCN1C(=O)[C@@H](NC(=O)[C@@](C)(O)C(=O)NCC(F)(F)C(F)(F)F)[C@@H](C)Oc2ccc(F)cc21` [Compound 15a, (S)-4-acetamido-5-(2-((2-((2R,3S)-7-fluoro-3-((S)-2-hydroxy-2-methyl-3-oxo-3-(2,2,3,3,3-pentafluoropropylamino)propanamido)-2-methyl-4-oxo-3,4-dihydrobenzo[b][1,4]oxazepin-5(2H)-yl)ethoxy)carbonylamino)ethylamino)-5-oxopentanoic acid], for which, in data set [1], the “conversion to amine-SecrI (11a), in words” value was “much lower extent”. In data set [1] (4 h), the “Plasma concentration of administered compound” value is listed as “BQL”. For the same compound, the concentration at 0.5 h in data set [1] (setting [4]) was 7540 ng/g; in data set [1] (setting [5]), 7220 ng/g; in data set [1] (setting [6]) it was 573 ng/mL. The concentration at 4 h worked out at 81 ng/g in data set [1] (kidney, 4 h, read-out: Kidney concentration of administered compound) and 2850 ng/g in data set [1] (liver, 4 h, read-out: Liver concentration of administered compound). The concentration at 7 h in data set [1] (setting [4]) is 33.8 ng/g; in data set [1] (setting [5]), 737 ng/g; in data set [1] (setting [6]) it was 6.29 ng/mL.
`C[C@H]1Oc2ccc(F)cc2N(CCO)C(=O)[C@H]1NC(=O)[C@@](C)(O)C(=O)NCC(F)(F)C(F)(F)F` [Compound 8, N-[(6R,7S)-2-Fluoro-9-(2-hydroxy-ethyl)-6-methyl-8-oxo-6,7,8,9-tetrahydro-5-oxa-9-aza-benzocyclohepten-7-yl]-2-(S)-hydroxy-2-methyl-N′-(2,2,3,3,3-pentafluoro-propyl)-malonamide]: the “Plasma concentration of formed 8” value in data set [2] is recorded as “BQL”; in data set [3] (13c 1.5 mg/kg i.v., 4 h), “BQL”; in data set [3] (13c 1.5 mg/kg i.v., 7 h), “BQL”. Besides, the “8 in kidney, relative amount (arbitrarily set to 100%)” value in data set [3] (0.25 h), in data set [3] (1.25 h), in data set [3] (2.2 h) and in data set [3] (7 h) was “(100) %” in each case. Moreover, the “8 in liver, relative amount (kidney = 100%)” value is on record as “(93) %” in data set [3] (0.25 h), “(101) %” in data set [3] (1.25 h), “(133) %” in data set [3] (2.2 h) and “(126) %” in data set [3] (7 h). The “Formed 8 in kidney, relative amount (arbitrarily set to 100%)” value in data set [3] (13c 1.5 mg/kg i.v., 7 h) is on record as “(100) %”. The “Formed 8 in liver, relative amount (kidney = 100%)” value in data set [3] (13c 1.5 mg/kg i.v., 7 h) was “(43) %”. For the same compound, the “kidney selectivity, in words” value in data set [3] (formed after 13c i.v.) is reported as “only a moderate kidney selectivity”. The “plasma clearance, in words” value in data set [3] (i.v.) was “rapid plasma clearance”. Besides, in data set [3] (i.v.), the “plasma exposure, in words” value is given as “good plasma exposure”. Further, the concentration at 0.25 h in data set [3] (kidney, 0.25 h, read-out: Kidney concentration of 8) turned out to be 3320 ng/g; in data set [3] (liver, 0.25 h, read-out: Liver concentration of 8), 3100 ng/g; in data set [3] (plasma, 0.25 h, read-out: Plasma concentration of 8), 964 ng/mL. For the same compound, the concentration at 1.25 h is 844 ng/g in data set [3] (kidney, 1.25 h, read-out: Kidney concentration of 8); 852 ng/g in data set [3] (liver, 1.25 h, read-out: Liver concentration of 8); 198 ng/mL in data set [3] (plasma, 1.25 h, read-out: Plasma concentration of 8). Besides, the concentration at 2.2 h stood at 225 ng/g in data set [3] (kidney, 2.2 h, read-out: Kidney concentration of 8); 298 ng/g in data set [3] (liver, 2.2 h, read-out: Liver concentration of 8); 39.7 ng/mL in data set [3] (plasma, 2.2 h, read-out: Plasma concentration of 8). For the same compound, the concentration at 7 h in data set [3] (kidney, 7 h, read-out: Kidney concentration of 8) was found to be 92.4 ng/g; in data set [3] (liver, 7 h, read-out: Liver concentration of 8) it was 116 ng/g; in data set [3] (plasma, 7 h, read-out: Plasma concentration of 8) it was 18.4 ng/mL.

The values above are taken from patent US10632127B2, “Targeted notch pathway inhibitors” (Hoffmann-La Roche Inc., priority 2015, dated 2020).
